From US20240316047A1, “INHIBITORS OF RNA HELICASE DHX9 AND USES THEREOF” (ACCENT THERAPEUTICS, INC., priority 2022, published 2024)

Biological target: Human recombinant DHX9 protein (Homo sapiens (Human), UniProt Q08211)
Test: DHX9 ATPase assay (ADP-Glo)
Type: biochemical
Settings: for IC50: read-out: DHX9 Biochemical Inflection Point

Human recombinant DHX9 protein, sequence (Q08211 whole entry): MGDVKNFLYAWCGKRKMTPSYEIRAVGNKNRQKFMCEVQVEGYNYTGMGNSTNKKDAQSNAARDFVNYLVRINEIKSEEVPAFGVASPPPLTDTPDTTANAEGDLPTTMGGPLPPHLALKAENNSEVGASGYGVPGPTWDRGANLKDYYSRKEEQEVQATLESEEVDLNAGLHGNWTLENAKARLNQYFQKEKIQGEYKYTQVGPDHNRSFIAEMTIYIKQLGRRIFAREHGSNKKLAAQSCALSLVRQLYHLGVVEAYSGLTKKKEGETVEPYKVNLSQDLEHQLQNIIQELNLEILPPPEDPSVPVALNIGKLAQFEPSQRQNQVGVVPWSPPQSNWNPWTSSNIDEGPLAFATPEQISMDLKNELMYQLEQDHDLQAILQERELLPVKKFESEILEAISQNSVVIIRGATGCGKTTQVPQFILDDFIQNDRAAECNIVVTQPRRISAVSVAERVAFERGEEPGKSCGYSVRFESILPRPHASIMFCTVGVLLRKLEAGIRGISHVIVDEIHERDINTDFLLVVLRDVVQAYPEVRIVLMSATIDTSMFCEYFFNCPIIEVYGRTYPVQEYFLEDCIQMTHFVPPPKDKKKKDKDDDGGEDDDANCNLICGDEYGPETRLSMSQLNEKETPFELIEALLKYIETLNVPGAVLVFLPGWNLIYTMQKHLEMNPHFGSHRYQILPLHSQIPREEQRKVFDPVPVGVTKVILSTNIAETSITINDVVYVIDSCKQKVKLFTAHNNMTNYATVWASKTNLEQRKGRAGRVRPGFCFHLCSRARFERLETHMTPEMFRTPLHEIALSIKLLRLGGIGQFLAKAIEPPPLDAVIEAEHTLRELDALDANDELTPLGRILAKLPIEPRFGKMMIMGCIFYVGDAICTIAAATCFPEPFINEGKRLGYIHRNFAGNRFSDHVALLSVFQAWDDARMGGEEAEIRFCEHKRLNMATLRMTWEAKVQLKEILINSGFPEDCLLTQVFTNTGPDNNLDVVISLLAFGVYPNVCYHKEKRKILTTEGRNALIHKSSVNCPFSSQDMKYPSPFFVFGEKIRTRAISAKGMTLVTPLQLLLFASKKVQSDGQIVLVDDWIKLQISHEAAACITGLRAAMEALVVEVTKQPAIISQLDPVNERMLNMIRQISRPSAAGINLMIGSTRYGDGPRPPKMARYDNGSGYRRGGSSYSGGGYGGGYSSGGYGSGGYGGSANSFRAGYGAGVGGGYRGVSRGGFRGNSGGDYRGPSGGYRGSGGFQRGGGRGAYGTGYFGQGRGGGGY

SMILES	DHX9 Biochemical Max Inhibition	IC50
CS(=O)(=O)Nc1cc(Br)cc(NC(=O)c2cc(-c3ccccn3)n(CC#N)c2)c1 [Example 95, N-(3-bromo-5-methanesulfonamidophenyl)-1-(cyanomethyl)-5-(pyridin-2-yl)-1H-pyrrole-3-carboxamide]	59.2%	20.5 nM
Cc1cc(C(=O)Nc2cc(Cl)cc(NS(C)(=O)=O)c2)cn1-c1ncc(C(F)(F)F)cn1 [Example 426]	74.7	58.5 nM
CCCS(=O)(=O)Nc1cc(Cl)cc(NC(=O)c2cc(-c3ccc(N4CC(F)(F)C4)cn3)n(C)c2)c1 [Example 531]	72.3	2600 nM
COC1CN(c2cnc(-n3cc(C(=O)Nc4cc(Cl)cc(NS(C)(=O)=O)c4)cc3C)nc2)C1 [Example 404]	92	84.5 nM
CS(=O)(=O)Nc1cc(Cl)cc(NC(=O)c2cnn(-c3ncccc3C#N)c2)c1 [Example 46]	57.2%	47.3 nM
COC(=O)[C@@H]1CCCN1c1csc(C(=O)Nc2cc(Cl)cc(NS(C)(=O)=O)c2)c1 [Example 242]	69.7%	105 nM
Cc1cccc(OCc2cccc(F)c2)c1-n1cc(C(=O)Nc2cc(Cl)cc(NS(C)(=O)=O)c2)cn1 [Example 255]	75.8%	72.4 nM
CCS(=O)(=O)Nc1cc(Cl)cc(NC(=O)c2cc(C)n(-c3ncc(F)cc3Cl)c2)c1 [Example 446]	64.1	115 nM
Cn1cc(C(=O)Nc2cc(Cl)cc(NS(=O)(=O)CCO)c2)cc1-c1ncc(F)cc1F [Example 581]	50.5	99.1 nM
Cn1cc(C(=O)Nc2cc(Cl)cc(NS(C)(=O)=O)c2)cc1-c1ccc(N2CCC3(C2)CC3(F)F)cn1 (stereo not drawn) [Example 495]	61.8	85.4 nM
Cc1ccc2cc(C(=O)Nc3cc(Cl)cc(NS(C)(=O)=O)c3)cn2c1 [Example 300]	58.5%	132 nM
Cc1sc(C(=O)Nc2cc(Cl)cc(NS(C)(=O)=O)c2)cc1-c1ncc(F)cc1Cl [Example 359]	68.3%	54.9 nM
CSc1cccnc1-n1cc(C(=O)Nc2cc(Cl)cc(NS(C)(=O)=O)c2)cn1 [Example 219]	62.3%	40.6 nM
CS(=O)(=O)Nc1cc(Cl)cc(NC(=O)c2c[nH]c(-c3ncc(F)cc3F)c2)c1 [Example 560]	59	51 nM
CS(=O)(=O)Nc1cc(Cl)cc(NC(=O)c2cc(N3CCOCC3)cs2)c1 [Example 245]	71.4%	121 nM
CS(=O)(=O)Nc1cc(F)cc(NC(=O)c2cc(-c3ccccc3)cs2)c1 [Example 73]	63%	189 nM

SMILES	DHX9 Biochemical Max Inhibition	IC50
CS(=O)(=O)Nc1cc(Cl)cc(NC(=O)c2cc(-c3cccnc3)cs2)c1 [Example 116, N-(3-chloro-5-(methylsulfonamido)phenyl)-4-(pyridin-3-yl)thiophene-2-carboxamide]	56.6%	–
Cn1cc(C(=O)Nc2cc(Cl)cc(NS(C)(=O)=O)c2)cc1Br [Example 83, 5-bromo-N-(3-chloro-5-(methylsulfonamido)phenyl)-1-methyl-1H-pyrrole-3-carboxamide]	60.7%	47.8 nM
Cc1sc(C(=O)Nc2cc(Cl)cc(NS(C)(=O)=O)c2)cc1-c1ncc(C(F)(F)F)cc1C#N [Example 367]	63.5%	55.9 nM
CS(=O)(=O)Nc1cc(Cl)cc(NC(=O)c2cnn(C3CCCC3)c2)c1 [Example 309]	60.8%	162 nM
Cc1sc(C(=O)Nc2cc(Cl)cc(NS(C)(=O)=O)c2)c(F)c1-c1ncc(OC(C)C)cn1 [Example 683]	62.5	1710 nM
Cc1sc(C(=O)Nc2cc(Cl)cc(NS(C)(=O)=O)c2)cc1-c1ncc(F)cc1N1CCC2(CC1)CC2 [Example 507]	52.9	1510 nM
CS(=O)(=O)Nc1cc(Cl)cc(NC(=O)c2cnn(C3CC4(COC4)C3)c2)c1 [Example 128]	57.3%	173 nM
Cn1cc(C(=O)Nc2cc(Cl)cc(NS(C)(=O)=O)c2)cc1-c1ncc(OC(C)(C)C)cc1F [Example 557]	59.8	37.1 nM
CCn1nc(C(=O)Nc2cc(F)cc(NS(C)(=O)=O)c2)cc1C [Example 119, 1-ethyl-N-(3-fluoro-5-(methylsulfonamido)phenyl)-5-methyl-1H-pyrazole-3-carboxamide]	82.1%	1160 nM
Cc1sc(C(=O)Nc2cc(Cl)cc(NS(C)(=O)=O)c2)cc1-c1cn(Cc2ccccc2)nn1 [Example 235]	78.1%	35.8 nM
CC1(C)CC(n2cc(C(=O)Nc3cc(Cl)cc(NS(C)(=O)=O)c3)cn2)CCN1 (stereo not drawn) [Example 315]	66.9%	75.3 nM
CP(C)(=O)c1cccnc1-n1cc(C(=O)Nc2cc(Cl)cc(NS(C)(=O)=O)c2)cn1 [Example 201]	66.1%	184 nM
Cc1sc(C(=O)Nc2cc(Cl)cc(NS(C)(=O)=O)c2)cc1-c1ncc(N2CC3C(C2)C3(C)C)cc1F (stereo not drawn) [Example 476]	61.1	312 nM
CS(=O)(=O)Nc1cc(Cl)cc(NC(=O)c2cc(-c3ncc(C(F)(F)F)cn3)cs2)c1 [Example 369]	61.5%	57.6 nM
Cc1cc(N2CCC(F)(F)CC2)cnc1-c1cc(C(=O)Nc2cc(Cl)cc(NS(C)(=O)=O)c2)cn1C [Example 600]	79.3	41.6 nM
CS(=O)(=O)Nc1cc(Cl)cc(NC(=O)c2cnn(C3CCNCC3)c2)c1 [Example 145, N-(3-chloro-5-(methylsulfonamido)phenyl)-1-(piperidin-4-yl)-1H-pyrazole-4-carboxamide]	67.9%	58 nM

More lines, in order of falling IC50, values ahead:

DHX9 Biochemical Max Inhibition	IC50	SMILES
68.1	35.7 nM	Cc1sc(C(=O)Nc2cc(Cl)cc(NS(C)(=O)=O)c2)cc1-c1ccc(N2CC3(C2)CC(F)(F)C3)cn1 [Example 499]
99.8	25 nM	COc1cc(C(F)(F)F)cnc1-c1cc(C(=O)Nc2cc(Cl)cc(NS(C)(=O)=O)c2)sc1C [Example 550]
72.9%	22.9 nM	CN(c1ncccn1)c1cccnc1-c1csc(C(=O)Nc2cc(Cl)cc(NS(C)(=O)=O)c2)c1 [Example 238]
73.5%	21 nM	CS(=O)(=O)Nc1cc(Cl)cc(NC(=O)c2cc(-c3ncccc3Nc3ncccn3)cs2)c1 [Example 237]
96.1	19.6 nM	Cc1sc(C(=O)Nc2cc(Cl)cc(NS(C)(=O)=O)c2)cc1-c1ncc(OCC(F)(F)F)cn1 [Example 706]
66.6	18.2 nM	CC(C)(C)Oc1cnc(-c2cc(C(=O)Nc3cc(Cl)cc(NS(C)(=O)=O)c3)sc2CO)nc1 [Example 686]
71.6%	16.4 nM	CN(C)C(=O)c1sc(C(=O)Nc2cc(Cl)cc(NS(C)(=O)=O)c2)cc1-c1ncccc1OCc1ccccc1 [Example 213]
79.7%	16 nM	CS(=O)(=O)Nc1cc(Cl)cc(NC(=O)c2cc(-c3ncccc3NC(=O)C3CC3)cs2)c1 [Example 220]
75.4	11.5 nM	Cc1sc(C(=O)Nc2cc(Cl)cc(NS(C)(=O)=O)c2)cc1-c1ncc(F)cc1C#CC(C)(C)O [Example 696]
79.1	8.7 nM	COc1cnn(-c2csc(C(=O)Nc3cc(Cl)cc(NS(C)(=O)=O)c3)c2)c1 [Example 435]
61.3%	8.6 nM	CCS(=O)(=O)Nc1cc(Cl)cc(NC(=O)c2cc(-c3ncccn3)n(C)c2)c1 [Example 173, N-(3-chloro-5-(ethylsulfonamido)phenyl)-1-methyl-5-(pyrimidin-2-yl)-1H-pyrrole-3-carboxamide]
69.7	8.5 nM	Cn1cc(C(=O)Nc2cc(Cl)cc(NS(C)(=O)=O)c2)cc1-c1ccc(N2CC(CS(C)(=O)=O)C2)cn1 [Example 695]
77.1	8.5 nM	CCS(=O)(=O)Nc1cc(Cl)cc(NC(=O)c2cc(-c3ncc(N4CC(F)(F)C4)cn3)c(C)s2)c1 [Example 463]
59.7	7.7 nM	CN1CC[C@H](Oc2cnc(-c3cc(C(=O)Nc4cc(Cl)cc(NS(C)(=O)=O)c4)cn3C)c(F)c2)C1 [Example 639, N-(3-chloro-5-methanesulfonamidophenyl)-5-(3-fluoro-5-{[(3S)-1-methylpyrrolidin-3-yl]oxy}pyridin-2-yl)-1-methylpyrrole-3-carboxamide]
74.8	5.7 nM	COC(=O)N1CCN(c2cnc(-c3cc(C(=O)Nc4cc(Cl)cc(NS(C)(=O)=O)c4)cn3C)c(F)c2)CC1 [Example 464]
61.7%	4.8 nM	Cc1cccnc1-c1csc(C(=O)Nc2cc(Br)cc(NS(C)(=O)=O)c2)c1 [Example 33]
68.9	3.6 nM	Cc1cc(C(=O)Nc2cc(Cl)cc(NS(C)(=O)=O)c2)cn1-c1ccc(N2CCC(F)(F)C2)cn1 [Example 396]
71.3%	3.6 nM	CS(=O)(=O)Nc1cc(Cl)cc(NC(=O)c2cnn(-c3ccccc3OCc3cccc(F)c3)c2)c1 [Example 210]
85	3.6 nM	CS(=O)(=O)Nc1cc(Cl)cc(NC(=O)c2cc(-c3ccc(F)cn3)n(CCO)c2)c1 [Example 689]
71%	2.5 nM	Cc1sc(C(=O)Nc2cc(Cl)cc(NS(C)(=O)=O)c2)cc1-c1ncccn1 [Example 22]
84.3	1.6 nM	CS(=O)(=O)Nc1cc(Cl)cc(NC(=O)c2cc(CO)n(-c3ncccc3OCc3cncc(F)c3)c2)c1 [Example 723]
